GI50 and TGI data for 9 molecules are collected here from PubChem BioAssay (NCI).

Assay in all cases: NCI tumour cell line growth inhibition, 48 h
Experiment [1] relates to NCI-H460 lung.
The subject of experiment [2] is SF-539 CNS.
For experiment [3], the system named is RPMI-8226 leukemia.
The test system of experiment [4] is HT29 colon.
Experiment [5] concerns UO-31 renal.
Experiment [6] concerns IGROV1 ovarian.
Experiment [7] relates to SF-268 CNS.
For experiment [8], the system named is CCRF-CEM leukemia.
Experiment [9] relates to SNB-19 CNS.
Experiment [10] has as its system NCI-H23 lung.

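Five compound concentrations were applied to cells in 96-well plates for 48 hours; endpoints were derived by simple linear interpolation of the resulting dose-response curve. GI50 = concentration required for 50% inhibition of growth. The concentration for full growth arrest is given as TGI.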

As to `CC(=O)NC(CCc1ccc(Cl)c(Cl)c1)c1cccc(O)c(=O)c1` (stereo not drawn), the GI50 was 0.407 µM in experiment [1]; 0.514 µM in [2]; 1.22 µM in experiment [3]; 0.784 µM in experiment [4]; 0.109 µM in experiment [5]; 0.539 µM in experiment [6]. In addition, the GI50 in experiment [7] is 0.517 µM; in [8], 0.398 µM; in experiment [9] it was 0.919 µM; in experiment [10] it was 1.11 µM. Moreover, the TGI is 11.8 µM in experiment [1]; 5.35 µM in experiment [2]; 19.7 µM in experiment [3]; 22 µM in [4]; 2.2 µM in experiment [5]; 3.33 µM in [6]. Moreover, the TGI in experiment [7] was determined as 14.7 µM; in experiment [8], 16.3 µM; in [9] it was 18.8 µM; in experiment [10], 18.9 µM.
On to `C/C(=C\CNc1ncnc2c1ncn2C1CCCCO1)COP(=O)(O)O` (stereo not drawn), for which the TGI in experiment [1], in [2], in [3], in experiment [4], in experiment [5] and in experiment [6] was over 100 µM throughout. The TGI in [7], in experiment [8], in [9] and in experiment [10] was over 100 µM throughout.
For `CC(C)(C)c1cc(Cc2ccc(S(C)(=O)=O)cc2)c(O)c(C(C)(C)C)c1`, the TGI in experiment [1] amounted to 30.5 µM; in [2] it was 30.7 µM; in experiment [3] it was 25.8 µM; in [4] it was 28.6 µM; in experiment [5], 29.6 µM; in experiment [6], 28.3 µM. For the same molecule, the TGI in experiment [7] is 25.9 µM; in experiment [8], 30.5 µM; in experiment [9], 29 µM; in experiment [10], 31.3 µM.
For `CCN(CC)CCOc1ccc(/C(=C(\C)Cc2ccc(OC)cc2)c2ccc(O)cc2)cc1`, the GI50 in experiment [1] was 1.86 µM; in experiment [2], 1.75 µM; in experiment [3], 1.79 µM; in [4] it was 1.43 µM; in [5], 1.45 µM; in experiment [6] it was 2.98 µM. In addition, the GI50 is 1.86 µM in experiment [7], 2.19 µM in experiment [8], 2.08 µM in experiment [9] and 1.98 µM in experiment [10]. Also, the TGI in experiment [1] worked out at 3.68 µM; in experiment [2] it was 3.24 µM; in experiment [3], 3.88 µM; in experiment [4], 3.67 µM; in experiment [5] it was 2.8 µM; in experiment [6], 10.3 µM. For the same molecule, the TGI in [7] amounted to 4.33 µM; in [8], 5.1 µM; in experiment [9], 4.77 µM; in experiment [10] it was 5.08 µM.
Turning to `Nc1nc2c(ncn2C2OC(CO)C(O)C2O)c(=O)o1` (stereo not drawn), the TGI in [1], in experiment [2], in [3], in [4], in experiment [5] and in experiment [6] was over 100 µM throughout. Moreover, the TGI in experiment [7], in [8], in [9] and in experiment [10] was over 100 µM each time.
On to `N=C1C(c2nc3ccccc3c(=O)[nH]2)=C(O)CN1c1cccc(Cl)c1`, for which the GI50 in [1] was 3.72 µM; in [2], 3.51 µM; in [3], 2.15 µM; in experiment [4], 0.845 µM; in experiment [5], 13.3 µM; in experiment [6], 37.6 µM. For the same molecule, the GI50 was 8.78 µM in experiment [7], 2.88 µM in experiment [8], 6.74 µM in experiment [9] and 4.67 µM in [10]. Besides, the TGI in [1] was over 85.6 µM; in [2] it was 24.8 µM; in experiment [3], 6.37 µM; in [4], over 100 µM; in [5], over 100 µM; in experiment [6], over 100 µM. In addition, the TGI in experiment [7], in experiment [8], in [9] and in experiment [10] was over 100 µM throughout.
`NNC(=O)N/N=C(/CC1(O)C(=O)Nc2ccc(Br)cc21)c1ccccc1` (stereo not drawn): the TGI in [2] is over 100 µM; in experiment [3], over 100 µM; in [4] it was over 100 µM; in experiment [5], 49.3 µM; in experiment [6], over 100 µM; in experiment [7] it was over 100 µM. Further, the TGI in experiment [8] was 65.2 µM; in [9], 46.2 µM; in experiment [10] it was over 100 µM.
Take `COc1c(CC(C)=O)c2ccccc2n1C(C)=O`: the TGI in [1], in experiment [2], in experiment [3], in experiment [4], in experiment [5] and in [6] was over 100 µM in each case. Also, the TGI in experiment [8], in experiment [9] and in experiment [10] was over 100 µM in each case.
Turning to `C=CCc1cc(O)ccc1O`, the GI50 in experiment [1] was 46.8 µM; in experiment [2], 14.2 µM; in experiment [3] it was 2.6 µM; in [4], 80.2 µM; in [5], 11 µM; in experiment [6] it was 43.4 µM. Further, the GI50 is 16.5 µM in experiment [7], 2.34 µM in [8], over 100 µM in [9] and over 100 µM in [10]. The TGI in [1] was over 100 µM; in [2] it was 70.2 µM; in experiment [3], 34.1 µM; in experiment [4] it was over 100 µM; in experiment [5], 24.4 µM; in experiment [6], over 100 µM. In addition, the TGI in [7] was over 100 µM; in experiment [8] it was 14.5 µM; in experiment [9] it was over 100 µM; in experiment [10] it was over 100 µM.
